{
  "source": "ChEMBL document CHEMBL5584333",
  "about": "“Evo312: An Evodiamine Analog and Novel PKCβI Inhibitor with Potent Antitumor Activity in Gemcitabine-Resistant Pancreatic Cancer” (J Med Chem, 2024)",
  "key": {"[1]": {"experiment": "Cytotoxicity against human MRC5 cells assessed as inhibition of cell growth incubated for 72 hrs by SRB assay", "type": "toxicity, cell-based"}, "[2]": {"test_system": "Gemcitabine-resistant PANC-1", "experiment": "Cytotoxicity against human Gemcitabine-resistant PANC-1 cells assessed as inhibition of cell growth incubated for 72 hrs by SRB assay", "type": "functional, cell-based", "settings": "Gemcitabine-resistant PANC-1, 72 h"}, "[3]": {"biological_target": "T1, Protein kinase C beta type (Homo sapiens, UniProt P05771)", "experiment": "Inhibition of recombinant full length N-terminal GST-tagged human PKCbeta1 expressed in baculovirus infected Sf9 insect cells using ERMRPRKRQGSVRRRV as substrate incubated for 60 mins in presence of ATP by ADP-glo reagent based luminometric analysis"}, "[4]": {"test_system": "Gemcitabine-resistant PANC-1", "experiment": "Downregulation of PKCbeta1expression in human Gemcitabine-resistant PANC-1 cells at 100 nM incubated for 24 hrs by Western blot analysis", "type": "functional, cell-based"}, "[5]": {"test_system": "PANC-1", "experiment": "Antiproliferative activity against human PANC-1 cells transfected with PKCbeta1 siRNA assessed as reduction in cell viability at 0.016 to 10 uM incubated for 72 hrs by MTT assay", "type": "functional, cell-based", "settings": "dose 0.016-10 µM"}, "[6]": {"test_system": "Gemcitabine-resistant PANC-1", "experiment": "Downregulation of PKCepsilon expression in human Gemcitabine-resistant PANC-1 cells at 40 to 160 nM incubated for 24 hrs by Western blotting", "type": "functional, cell-based", "settings": "dose 40-160 nM"}, "[7]": {"biological_target": "Glycogen synthase kinase-3 beta (Homo sapiens) (UniProt P49841)", "sequence (P49841 whole entry, looked up)": "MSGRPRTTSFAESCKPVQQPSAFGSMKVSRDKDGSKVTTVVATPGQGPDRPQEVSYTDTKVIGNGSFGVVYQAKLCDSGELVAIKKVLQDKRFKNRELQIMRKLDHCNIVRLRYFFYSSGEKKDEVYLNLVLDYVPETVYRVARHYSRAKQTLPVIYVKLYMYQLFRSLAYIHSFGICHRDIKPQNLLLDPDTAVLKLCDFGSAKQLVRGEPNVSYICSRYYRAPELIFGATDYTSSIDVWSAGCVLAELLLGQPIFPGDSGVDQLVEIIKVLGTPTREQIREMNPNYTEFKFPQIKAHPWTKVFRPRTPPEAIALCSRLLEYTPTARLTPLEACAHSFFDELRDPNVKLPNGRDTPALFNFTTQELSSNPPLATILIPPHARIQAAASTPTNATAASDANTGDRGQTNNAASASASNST", "experiment": "Inhibition of GSK3beta phosphorylation in human Gemcitabine-resistant PANC-1 cells at 160 nM incubated for 24 hrs by phospho-kinase array analysis", "type": "cell-based"}, "[8]": {"biological_target": "T2, Signal transducer and activator of transcription 5A (Homo sapiens) (UniProt P42229)", "T2 sequence (whole entry)": "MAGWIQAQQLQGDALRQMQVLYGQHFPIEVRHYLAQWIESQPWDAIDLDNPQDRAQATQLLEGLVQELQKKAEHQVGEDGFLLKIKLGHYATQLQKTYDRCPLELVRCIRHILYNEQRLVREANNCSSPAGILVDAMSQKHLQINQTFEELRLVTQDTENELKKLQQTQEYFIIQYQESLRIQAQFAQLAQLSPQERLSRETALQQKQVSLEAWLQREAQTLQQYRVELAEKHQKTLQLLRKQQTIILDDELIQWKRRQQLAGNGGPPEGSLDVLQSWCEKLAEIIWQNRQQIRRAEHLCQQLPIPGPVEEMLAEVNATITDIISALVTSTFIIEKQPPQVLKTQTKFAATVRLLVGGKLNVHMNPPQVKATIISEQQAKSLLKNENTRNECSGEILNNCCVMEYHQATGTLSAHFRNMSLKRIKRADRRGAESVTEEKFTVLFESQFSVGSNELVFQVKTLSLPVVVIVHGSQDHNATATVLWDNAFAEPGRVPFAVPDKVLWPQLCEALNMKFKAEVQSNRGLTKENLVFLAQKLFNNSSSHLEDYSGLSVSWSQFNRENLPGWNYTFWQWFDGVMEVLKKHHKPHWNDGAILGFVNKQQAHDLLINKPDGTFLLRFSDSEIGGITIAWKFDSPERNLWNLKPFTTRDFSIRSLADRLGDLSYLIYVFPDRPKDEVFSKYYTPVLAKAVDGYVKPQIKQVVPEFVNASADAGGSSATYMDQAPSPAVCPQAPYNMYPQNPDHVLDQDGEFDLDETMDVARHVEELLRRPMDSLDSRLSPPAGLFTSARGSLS", "experiment": "Inhibition of STAT5 phosphorylation in human Gemcitabine-resistant PANC-1 cells at 160 nM incubated for 24 hrs by phospho-kinase array analysis", "type": "cell-based"}, "[9]": {"test_system": "Gemcitabine-resistant PANC-1", "experiment": "Downregulation of p-Akt expression in human Gemcitabine-resistant PANC-1 cells at 40 to 160 nM incubated for 24 hrs by Western blotting", "type": "functional, cell-based", "settings": "dose 40-160 nM"}, "[10]": {"test_system": "Gemcitabine-resistant PANC-1", "experiment": "Downregulation of p-PRAS40 expression in human Gemcitabine-resistant PANC-1 cells at 40 to 160 nM incubated for 24 hrs by Western blotting", "type": "functional, cell-based", "settings": "dose 40-160 nM"}, "[11]": {"test_system": "Gemcitabine-resistant PANC-1", "experiment": "Effect on Akt expression in human Gemcitabine-resistant PANC-1 cells at 40 to 160 nM by Western blot analysis", "type": "functional, cell-based", "settings": "dose 40-160 nM"}, "[12]": {"test_system": "Gemcitabine-resistant PANC-1", "experiment": "Effect on PRAS40 expression in human Gemcitabine-resistant PANC-1 cells at 40 to 160 nM by Western blot analysis", "type": "functional, cell-based", "settings": "dose 40-160 nM"}, "[13]": {"test_system": "Gemcitabine-resistant PANC-1", "experiment": "Effect on STAT5 expression in human Gemcitabine-resistant PANC-1 cells at 40 to 160 nM by Western blot analysis", "type": "functional, cell-based", "settings": "dose 40-160 nM"}, "[14]": {"test_system": "Gemcitabine-resistant PANC-1", "experiment": "Cell cycle distribution in human Gemcitabine-resistant PANC-1 cells assessed as G0-G1 phase cells at 40 nM incubated for 24 hrs by RNase/PI staining based flow cytometric analysis (reference value: 45.21 %)", "type": "functional"}, "[15]": {"test_system": "Gemcitabine-resistant PANC-1", "experiment": "Cell cycle distribution in human Gemcitabine-resistant PANC-1 cells assessed as G0-G1 phase cells at 160 nM incubated for 24 hrs by RNase/PI staining based flow cytometric analysis (reference value: 45.21 %)", "type": "functional"}, "[16]": {"test_system": "Gemcitabine-resistant PANC-1", "experiment": "Cell cycle distribution in human Gemcitabine-resistant PANC-1 cells assessed as G2/M phase cells at 40 nM incubated for 24 hrs by RNase/PI staining based flow cytometric analysis (reference value: 37.53 %)", "type": "functional"}, "[17]": {"test_system": "Gemcitabine-resistant PANC-1", "experiment": "Induction of cell cycle arrest in human Gemcitabine-resistant PANC-1 cells assessed as downregulation of CDK2 protein expression level at 40 to 160 nM incubated for 24 hrs by Western blot analysis", "type": "functional, cell-based", "settings": "dose 40-160 nM"}, "[18]": {"test_system": "Gemcitabine-resistant PANC-1", "experiment": "Induction of cell cycle arrest in human Gemcitabine-resistant PANC-1 cells assessed as upregulation of p27 protein expression level at 40 to 160 nM incubated for 24 hrs by Western blot analysis", "type": "functional, cell-based", "settings": "dose 40-160 nM"}, "[19]": {"test_system": "Gemcitabine-resistant PANC-1", "experiment": "Induction of apoptosis in human Gemcitabine-resistant PANC-1 cells assessed as total cell death at 40 nM incubated for 48 hrs by Annexin V-FITC/PI staining based flow cytometric analysis relative to control", "type": "functional"}, "[20]": {"test_system": "Gemcitabine-resistant PANC-1", "experiment": "Induction of apoptosis in human Gemcitabine-resistant PANC-1 cells assessed as total cell death at 80 nM incubated for 48 hrs by Annexin V-FITC/PI staining based flow cytometric analysis relative to control", "type": "functional"}, "[21]": {"test_system": "Gemcitabine-resistant PANC-1", "experiment": "Induction of apoptosis in human Gemcitabine-resistant PANC-1 cells assessed as total cell death at 160 nM incubated for 48 hrs by Annexin V-FITC/PI staining based flow cytometric analysis relative to control", "type": "functional"}, "[22]": {"experiment": "Toxicity in male BALB/c nude mouse assessed as animal death at 40 mg/kg, ip", "type": "organism-based", "settings": "in vivo"}, "[23]": {"experiment": "Toxicity in male BALB/c nude mouse xenografted with human Gemcitabine-resistant PANC-1 cells at 10 mg/kg, ip administered three times in a week for 20 days", "type": "organism-based", "settings": "in vivo, 480 h, time 20 day"}, "[24]": {"experiment": "Toxicity in male BALB/c nude mouse xenografted with human Gemcitabine-resistant PANC-1 cells assessed as body weight change at 10 mg/kg, ip administered three times in a week for 20 days", "type": "organism-based", "settings": "in vivo, 480 h, time 20 day"}, "[25]": {"test_system": "Gemcitabine-resistant PANC-1", "experiment": "Antitumor activity against human Gemcitabine-resistant PANC-1 cells xenografted in male BALB/c nude mouse assessed as reduction in tumor weight at 10 mg/kg, ip administered three times in a week for 20 days relative to control", "type": "functional", "design": "scale not given: the % may be the effect or the level left", "settings": "time 20 day"}, "[26]": {"biological_target": "T1, Protein kinase C beta type", "experiment": "Induction of thermal stabilization of PKCbeta1 in human Gemcitabine-resistant PANC-1 cells at 10 uM incubated for 1 hrs at 40 to 65 degreeC by CETSA", "type": "cell-based"}},
  "note": "pIC50: −log10 of the molar value. The source made the active and inactive calls. The calls are words filed in the database; no cut-off is given here.",
  "data": [
    {"smiles": "CC(=O)Oc1ccc2[nH]c3c(c2c1)CCN1C(=O)c2ccccc2N(C)[C@H]31", "values": [
      {"measurement": "IC50 at 72 h", "setting": "[1]", "result": "> 50000", "unit": "nM"},
      {"measurement": "pIC50", "setting": "[2]", "result": 7.15},
      {"measurement": "pIC50", "setting": "[3]", "result": 6.93},
      {"measurement": "Activity", "setting": "[4]", "result": "Active"},
      {"measurement": "Activity", "setting": "[5]", "result": "inactive"},
      {"measurement": "Activity", "setting": "[6]", "result": "inactive"},
      {"measurement": "inhibition", "setting": "[7]", "result": "Active"},
      {"measurement": "inhibition", "setting": "[8]", "result": "Active"},
      {"measurement": "Activity", "setting": "[9]", "result": "Active"},
      {"measurement": "Activity", "setting": "[10]", "result": "Active"},
      {"measurement": "Activity", "setting": "[11]", "result": "inactive"},
      {"measurement": "Activity", "setting": "[12]", "result": "inactive"},
      {"measurement": "Activity", "setting": "[13]", "result": "inactive"},
      {"measurement": "Activity", "setting": "[14]", "result": 42.91, "unit": "%"},
      {"measurement": "Activity", "setting": "[15]", "result": 26.28, "unit": "%"},
      {"measurement": "Activity", "setting": "[16]", "result": 39.38, "unit": "%"},
      {"measurement": "Activity", "setting": "[17]", "result": "Active"},
      {"measurement": "Activity", "setting": "[18]", "result": "Active"},
      {"measurement": "Activity", "setting": "[19]", "result": 15.83, "unit": "%"},
      {"measurement": "Activity", "setting": "[20]", "result": 20.63, "unit": "%"},
      {"measurement": "Activity", "setting": "[21]", "result": 24.95, "unit": "%"},
      {"measurement": "Activity", "setting": "[22]", "result": "Non-Toxic"},
      {"measurement": "Activity", "setting": "[23]", "result": "Non-Toxic"},
      {"measurement": "Activity", "setting": "[24]", "result": "Non-Toxic"},
      {"measurement": "Activity", "setting": "[25]", "result": 44.89, "unit": "%"},
      {"measurement": "Activity", "setting": "[26]", "result": "Active"}
    ]}
  ]
}
